Test results: US11352394B2, “Cyclic cell penetrating peptides comprising beta-hairpin motifs and methods of making and using thereof” (Ohio State Innovation Foundation, priority 2016, dated 2022)
Where “and” joins values, the source holds several entries; their conditions need not be identical. Identical values can stand only once. Bridge positions count the residues as written; N and C are the ends. Square brackets hold non-standard residues; d marks the D form. Ends that are not written are not given here. 2Nal = N[C@@H](Cc1ccc2ccccc2c1)C(=O)O; d2Nal = N[C@H](Cc1ccc2ccccc2c1)C(=O)O; NF = naphthofluorescein

System: HeLa cells
Assay: Cellular (cytosolic) uptake of NF-labeled peptides by flow cytometry (MFI)
Format: cell-based
Conditions: for Cellular Uptake (MFINF, %): 5 μM NF-labeled peptide; for Cellular Uptake (MFINF, %) / Cellular Uptake (MFI^NF, %) of Keap1-Nrf2 inhibitors / Cellular entry / delivery efficiency (in words): flow cytometry; for Cellular Uptake (MFINF, %) / Cellular Uptake (MFI^NF, %) of Keap1-Nrf2 inhibitors: relative to CPP1 (100%); for Cellular Uptake (MFI^NF, %), cytosolic delivery efficiency of CPPs without beta-hairpin moiety: relative to CPP 1 (100%), mean ± S.D. of three independent experiments; for Cellular Uptake (MFI^NF, %) of Keap1-Nrf2 inhibitors: NF-labeled peptide
Description: HeLa cells were treated with 5 μM peptide for 2 h, and their cell uptake efficiencies were determined by flow cytometry analysis. The mean fluorescence intensity (MFI) values derived from cytometry analyses reflect the amounts of peptides inside the cytosol and nucleus, whereas any NF-labeled peptide entrapped inside the acidic endosomes are invisible under the experimental conditions (Id.; Qian, Z et al. Chem. Commun. 2015, 51, 2162-2165).
The binding affinity of BH23 (unlabeled) for the Grb2 SH2 domain was then determined by examining its ability to compete with the FAM-labeled ligand for binding to the Grb2 SH2 domain by fluorescence polarization (FP). […] Next, BH23 was labeled with NF at the Asn side chain through a miniPEG-Lys linker and its cytosolic entry efficiency was quantitated by treating HeLa cells with 5 μM of the labeled peptide for 2 h before flow cytometry analysis. […] BH23 was also similarly labeled at the Asn side chain with FAM and its entry into HeLa cells was examined by live-cell confocal microscopy. […] Two control peptides (BH24 and BH25) were also prepared for cellular assays. BH24 and BH25 are structurally similar to BH23, except that BH24 contained a Tyr instead of the pY residue (FIG. 11), whereas in BH25 the two hydrophobic residues critical for cellular uptake (Nal-arg) were replaced with Ala-ala (FIG. 12).
BHT1 and BHT2 were labeled with naphthofluorescein (NF) and their cytosolic uptake into HeLa cells was determined by flow cytometry (Table 10).
Additional cell penetrating compounds were prepared and tested for cytosolic delivery. In these compounds there was no beta-hairpin turn creating moiety.

cyclo(A-E-T-G-E-F-L-F-Φ-r-p-P-R-R-F-L-Q)-miniPEG-K(NF) (cyclo(AETGEFLF[2Nal][dR][dP]PRRFLQ); not fully specified (residue 17); printed as cyclo(A-E-T-G-E-F-L-F-Φ-r-p-P-R-R-F-L-Q)-miniPEG-K(NF)) [BH12]
Cytosolic entry efficiency, fold higher than CPP1 (HeLa cells): 5.8 fold
Cellular Uptake (MFINF, %) (HeLa cells, 2 h): 575 ± 239%

245 (FRRRFRQ; cyclic) [Peptide 245]
Cellular Uptake (MFI^NF, %), cytosolic delivery efficiency of CPPs without beta-hairpin moiety: 20 ± 3%

247 (RFRRFRQ; cyclic) [Peptide 247]
Cellular Uptake (MFI^NF, %), cytosolic delivery efficiency of CPPs without beta-hairpin moiety: 94 ± 9%

243 (FFRRRRQ; cyclic) [Peptide 243]
Cellular Uptake (MFI^NF, %), cytosolic delivery efficiency of CPPs without beta-hairpin moiety: 89 ± 27%

cyclo[F-Φ-r-p-P-R-R-F-K(NF)-D-P-E-T-G-E] (cyclo(F[2Nal][dR][dP]PRRFK(NF)DPETGE)) [BH21]
Cellular Uptake (MFI^NF, %) of Keap1-Nrf2 inhibitors (HeLa cells): 44.6%
Cellular entry / delivery efficiency (in words) (HeLa cells): less efficiently than BH6 and BH12

256 (FRRFRFQ; cyclic) [Peptide 256]
Cellular Uptake (MFI^NF, %), cytosolic delivery efficiency of CPPs without beta-hairpin moiety: 101 ± 16%

238 (FRRFRQ; cyclic) [Peptide 238]
Cellular Uptake (MFI^NF, %), cytosolic delivery efficiency of CPPs without beta-hairpin moiety: 38 ± 10%

246 (RFFRRRQ; cyclic) [Peptide 246]
Cellular Uptake (MFI^NF, %), cytosolic delivery efficiency of CPPs without beta-hairpin moiety: 63 ± 19%

255 (FRRFFRQ; cyclic) [Peptide 255]
Cellular Uptake (MFI^NF, %), cytosolic delivery efficiency of CPPs without beta-hairpin moiety: 109 ± 11%

248 (FRFRRRQ; cyclic) [Peptide 248]
Cellular Uptake (MFI^NF, %), cytosolic delivery efficiency of CPPs without beta-hairpin moiety: 132 ± 57%

262 (RRFFRRRQ; cyclic) [Peptide 262]
Cellular Uptake (MFI^NF, %), cytosolic delivery efficiency of CPPs without beta-hairpin moiety: 115 ± 20%

257 (FRFRFRQ; cyclic) [Peptide 257]
Cellular Uptake (MFI^NF, %), cytosolic delivery efficiency of CPPs without beta-hairpin moiety: 105 ± 14%

cyclo(A-A-F-Φ-R-p-P-R-R-R-A-A-A-Q)-miniPEG-K(NF) (cyclo(AAF[2Nal]R[dP]PRRRAAAQ); not fully specified (residue 14); printed as cyclo(A-A-F-Φ-R-p-P-R-R-R-A-A-A-Q)-miniPEG-K(NF)) [BH1]
Cellular Uptake (MFINF, %) (HeLa cells, 2 h): 66 ± 12%

250 (FFRRRFQ; cyclic) [Peptide 250]
Cellular Uptake (MFI^NF, %), cytosolic delivery efficiency of CPPs without beta-hairpin moiety: 158 ± 21%

286 (CWWWRRRC; disulfide 1-8) [Peptide 286]
Cellular Uptake (MFI^NF, %), cytosolic delivery efficiency of CPPs without beta-hairpin moiety: 135%

240 (cyclo(G[2Nal]RRRQ); SMILES N=C(N)NCCC[C@@H]1NC(=O)[C@H](Cc2ccc3ccccc3c2)NC(=O)CNC(=O)[C@H](CCC(N)=O)NC(=O)[C@H](CCCNC(=N)N)NC(=O)[C@H](CCCNC(=N)N)NC1=O) [Peptide 240]
Cellular Uptake (MFI^NF, %), cytosolic delivery efficiency of CPPs without beta-hairpin moiety: 49 ± 5%

265 (FFRRFRRQ; cyclic) [Peptide 265]
Cellular Uptake (MFI^NF, %), cytosolic delivery efficiency of CPPs without beta-hairpin moiety: 46 ± 2%

244 (FRRFRRQ; cyclic) [Peptide 244]
Cellular Uptake (MFI^NF, %), cytosolic delivery efficiency of CPPs without beta-hairpin moiety: 31 ± 3%

279 (cyclo(F[2Nal][dR]R[dR]Q)) [Peptide 279]
Cellular Uptake (MFI^NF, %), cytosolic delivery efficiency of CPPs without beta-hairpin moiety: 76%

239 (FRRRFQ; cyclic) [Peptide 239]
Cellular Uptake (MFI^NF, %), cytosolic delivery efficiency of CPPs without beta-hairpin moiety: 25 ± 4%

284 (CWWWRRRRC; disulfide 1-9) [Peptide 284]
Cellular Uptake (MFI^NF, %), cytosolic delivery efficiency of CPPs without beta-hairpin moiety: 67%

237 (FRFRRQ; cyclic) [Peptide 237]
Cellular Uptake (MFI^NF, %), cytosolic delivery efficiency of CPPs without beta-hairpin moiety: 15 ± 3%

274 (cyclo([dF]F[dF]R[dR]RQ); SMILES N=C(N)NCCC[C@@H]1NC(=O)[C@@H](CCCNC(=N)N)NC(=O)[C@H](CCCNC(=N)N)NC(=O)[C@@H](Cc2ccccc2)NC(=O)[C@H](Cc2ccccc2)NC(=O)[C@@H](Cc2ccccc2)NC(=O)[C@H](CCC(N)=O)NC1=O) [Peptide 274]
Cellular Uptake (MFI^NF, %), cytosolic delivery efficiency of CPPs without beta-hairpin moiety: 359 ± 66%

cyclo(AFΦPRRFQ)-miniPEG-K(NF) [BHT1]
Cellular Uptake (MFI^NF, %) of β-hairpin transporters (HeLa cells, 5 μM peptide, 2 h, DMEM with 10% FBS and 1% ABS, relative to CPP9 (100%)): 88% and 88 ± 11%

272 (cyclo(F[dF]FR[dR]RQ); SMILES N=C(N)NCCC[C@@H]1NC(=O)[C@H](Cc2ccccc2)NC(=O)[C@@H](Cc2ccccc2)NC(=O)[C@H](Cc2ccccc2)NC(=O)[C@H](CCC(N)=O)NC(=O)[C@H](CCCNC(=N)N)NC(=O)[C@@H](CCCNC(=N)N)NC1=O) [Peptide 272]
Cellular Uptake (MFI^NF, %), cytosolic delivery efficiency of CPPs without beta-hairpin moiety: 230 ± 18%

260 (FFFRRRRQ; cyclic) [Peptide 260]
Cellular Uptake (MFI^NF, %), cytosolic delivery efficiency of CPPs without beta-hairpin moiety: 122 ± 20%

249 (FFFRRRQ; cyclic) [Peptide 249]
Cellular Uptake (MFI^NF, %), cytosolic delivery efficiency of CPPs without beta-hairpin moiety: 231 ± 43%

236 (cyclo(FFR[dR]RQ); SMILES N=C(N)NCCC[C@@H]1NC(=O)[C@H](Cc2ccccc2)NC(=O)[C@H](Cc2ccccc2)NC(=O)[C@H](CCC(N)=O)NC(=O)[C@H](CCCNC(=N)N)NC(=O)[C@@H](CCCNC(=N)N)NC1=O) [Peptide 236]
Cellular Uptake (MFI^NF, %), cytosolic delivery efficiency of CPPs without beta-hairpin moiety: 40%

cyclo[F-F-Φ-r-P-p-R-R-F-Q-K(NF)-D-P-E-T-G-E] (cyclo(FF[2Nal][dR]P[dP]RRFQK(NF)DPETGE)) [BH22]
Cellular Uptake (MFI^NF, %) of Keap1-Nrf2 inhibitors (HeLa cells): 56.9%
Cellular entry, fold less efficient than BH20 (HeLa cells, -L-Pro-D-Pro- instead of -D-Pro-L-Pro-): ~2 fold

261 (RFFRRRRQ; cyclic) [Peptide 261]
Cellular Uptake (MFI^NF, %), cytosolic delivery efficiency of CPPs without beta-hairpin moiety: 104 ± 5%

235 (cyclo(FF[dR]R[dR]Q); SMILES N=C(N)NCCC[C@@H]1NC(=O)[C@@H](CCCNC(=N)N)NC(=O)[C@H](Cc2ccccc2)NC(=O)[C@H](Cc2ccccc2)NC(=O)[C@H](CCC(N)=O)NC(=O)[C@@H](CCCNC(=N)N)NC1=O) [Peptide 235]
Cellular Uptake (MFI^NF, %), cytosolic delivery efficiency of CPPs without beta-hairpin moiety: 122%

252 (RRFFFRQ; cyclic) [Peptide 252]
Cellular Uptake (MFI^NF, %), cytosolic delivery efficiency of CPPs without beta-hairpin moiety: 172 ± 24%

cyclo(A-A-F-Φ-R-p-P-R-R-F-A-A-A-Q)-miniPEG-K(NF) (cyclo(AAF[2Nal]R[dP]PRRFAAAQ); not fully specified (residue 14); printed as cyclo(A-A-F-Φ-R-p-P-R-R-F-A-A-A-Q)-miniPEG-K(NF)) [BH4]
Cellular Uptake (MFINF, %) (HeLa cells, 2 h): 73 ± 6%
Cellular entry / delivery efficiency (in words) (HeLa cells): taken up most efficiently

276 (cyclo([dF]F[d2Nal][dR]R[dR]Q); also: further D-residues, places not given here) [Peptide 276]
Cellular Uptake (MFI^NF, %), cytosolic delivery efficiency of CPPs without beta-hairpin moiety: 250 ± 37%

277 (cyclo([dF][2Nal][dF][dR]R[dR]Q)) [Peptide 277]
Cellular Uptake (MFI^NF, %), cytosolic delivery efficiency of CPPs without beta-hairpin moiety: 267 ± 62%

258 (RFFRFRQ; cyclic) [Peptide 258]
Cellular Uptake (MFI^NF, %), cytosolic delivery efficiency of CPPs without beta-hairpin moiety: 96 ± 31%

270 (cyclo(F[2Nal]R[dR]R[dR]Q)) [Peptide 270]
Cellular Uptake (MFI^NF, %), cytosolic delivery efficiency of CPPs without beta-hairpin moiety: 212 ± 42%

cyclo[F-F-Φ-r-p-P-R-R-F-Q-K(NF)-D-P-E-T-G-E] (cyclo(FF[2Nal][dR][dP]PRRFQK(NF)DPETGE)) [BH20]
Cellular Uptake (MFI^NF, %) of Keap1-Nrf2 inhibitors (HeLa cells): 122.4%
Cellular entry / delivery efficiency (in words) (HeLa cells): less efficiently than BH6 and BH12

280 (cyclo([dF][2Nal][dR]R[dR]Q)) [Peptide 280]
Cellular Uptake (MFI^NF, %), cytosolic delivery efficiency of CPPs without beta-hairpin moiety: 214%

283 (CWWRRRRC; disulfide 1-8) [Peptide 283]
Cellular Uptake (MFI^NF, %), cytosolic delivery efficiency of CPPs without beta-hairpin moiety: 51%

254 (FFRRFRQ; cyclic) [Peptide 254]
Cellular Uptake (MFI^NF, %), cytosolic delivery efficiency of CPPs without beta-hairpin moiety: 86 ± 12%

267 (FRRFFRRQ; cyclic) [Peptide 267]
Cellular Uptake (MFI^NF, %), cytosolic delivery efficiency of CPPs without beta-hairpin moiety: 127 ± 22%

cyclo(A-A-F-R-R-p-P-R-R-Φ-A-A-A-Q)-miniPEG-K(NF) (cyclo(AAFRR[dP]PRR[2Nal]AAAQ); not fully specified (residue 14); printed as cyclo(A-A-F-R-R-p-P-R-R-Φ-A-A-A-Q)-miniPEG-K(NF)) [BH2]
Cellular Uptake (MFINF, %) (HeLa cells, 2 h): 24 ± 1%

cyclo(A-A-F-Φ-R-p-P-R-r-F-A-A-A-Q)-miniPEG-K(NF) (cyclo(AAF[2Nal]R[dP]PR[dR]FAAAQ); not fully specified (residue 14); printed as cyclo(A-A-F-Φ-R-p-P-R-r-F-A-A-A-Q)-miniPEG-K(NF)) [BH7]
Cellular Uptake (MFINF, %) (HeLa cells, 2 h): 363 ± 213%
Improvement of cytosolic entry efficiency relative to BH4 (HeLa cells, D-amino acid diastereomers of BH4): 5 fold
